This note sets out measurements from patent US10221168B1, “Small-compound enhancers for functional O-mannosylation of alpha-dystroglycan, and uses thereof” (priority 2015, dated 2019).

For the first experiment, the system named is FOG of α-DG on the cell surfaces. In words: Cell-based HTS/HCS assay, IIH6 antibody as probe (EC1.5). Conditions: concentration of the compound required to enhance the FOG of α-DG by 50% over the controls; cell-based assays in vitro. From the text: (§1) Protein glycosylation is a multiple-step process that requires a large number of proteins in the secretory pathway of the cells. Thus we chose cell-based assay because our goal is to identify enhancer the FOG of α-DG on the cell surfaces. The assay system is HTS/HCS friendly and can adapt to various cell lines including myotubes as well as various readout methods including AlphaScreen, fluorescence density and HCS/fluorescence imaging. The standard operation protocol (SOP) for adhesion cells is described below and the FIG. 1 illustrates the assay process using myoblasts as the controls and screening cells and the IIH6 antibody as the probe. Other adhesion cells such CHO (Chinese hamster ovary) cell line can be implemented into this assay by simply removing the differentiation step.
Cell cultures: All cells are cultured at 37° C., 5% CO2, in appropriate media (F-12 for epithelial cells and DMEM for myoblasts) supplement with 10-20% fetal calf serum (FCS) and 1% antibiotics. […] The cells will be detached with trypsin EDTA and suspended in the cell culture media. The cells will be counted and seeded into the multiple-well plates as desired. Myotubes formation: When the myoblasts reach confluence, change the growth media to differential media (DEME with 2% horse serum) and incubate for 4-5 days.
The cells were fixed, permeablized, and then blocked with 10% BSA in PBS for 1 hour. […] After washing the cells with PBS for 2 times, the DAPI was used to stain the cells for 15 mins and wash 3 times with PBS. The images were captured with an inverted Olympus fluorescent microscope. For small compound localization experiment, the cells are incubated with the biotin conjugated compounds and then the cells were washed and incubated with streptavidin-Dye and then images will be captured to see the location of the compound-target-protein.
H, EC1.5<5 μM; M, EC1.5-20 μM; L, EC1.5 20-50 μM; VL, EC1.5>50 μM.
Turning to `CCC(c1nnnn1Cc1cccs1)N1CCN(c2nc3cc(N)cc(F)c3s2)CC1` (stereo not drawn) [Compound 46, 5-amino-7-fluoro-2-(4-(1-(1-(thiophen-2-ylmethyl)-1H-tetrazol-5-yl)propyl)piperazin-1-yl)benzothiazole], the “Activity (EC1.5)” value is “H (EC1.5<5 μM)”. Same read-out and setting: with `CCC(c1nnnn1CCc1cccs1)N1CCN(C2Sc3c(F)cc(N)cc3N2N)CC1` (stereo not drawn) [Compound 61, 5-amino-7-fluoro-3-amino-2-(4-(1-(1-(thiophen-2-ylethyl)-1H-tetrazol-5-yl)propyl)piperazin-1-yl)benzothiazole] the entry was “H (EC1.5<5 μM)”. Still for that read-out and setting: to `CCC(c1nnnn1CCc1cccs1)N1CCN(C2Sc3c(F)cc(N)cc3N2[N+](=O)[O-])CC1` (stereo not drawn) [Compound 62, 5-amino-7-fluoro-3-nitro-2-(4-(1-(1-(thiophen-2-ylethyl)-1H-tetrazol-5-yl)propyl)piperazin-1-yl)benzothiazole] belongs “H (EC1.5<5 μM)”; to `CCC(c1nnnn1CCc1cccs1)N1CCN(C2Sc3c(F)cc(N)cc3N2C)CC1` (stereo not drawn) [Compound 63, 5-amino-7-fluoro-3-methyl-2-(4-(1-(1-(thiophen-2-ylethyl)-1H-tetrazol-5-yl)propyl)piperazin-1-yl)benzothiazole], “H (EC1.5<5 μM)”; to `CCC(c1nnnn1CCc1cccs1)N1CCN(c2nc3cc(N)cc(F)c3s2)CC1[N+](=O)[O-]` (stereo not drawn) [Compound 64, 5-amino-7-fluoro-2-(4-(1-(1-(thiophen-2-ylethyl)-1H-tetrazol-5-yl)propyl)-3-nitro-piperazin-1-yl)benzothiazole], “H (EC1.5<5 μM)”.

On to `CCC(c1nnnn1CCc1cccs1)N1CCN(c2nc3cc(N)cc(F)c3s2)CC1[N+](=O)[O-]` (stereo not drawn) [Compound 65, 5-amino-7-fluoro-2-(4-(1-(1-(thiophen-2-ylethyl)-1H-tetrazol-5-yl)propyl)-5-nitro-piperazin-1-yl)benzothiazole], for which the “Activity (EC1.5)” value is recorded as “H (EC1.5<5 μM)”. On to `CCC(c1nnnn1CCc1cccs1)N1CCN(c2nc3cc(N)cc(F)c3s2)C(N)C1` (stereo not drawn) [Compound 66, 5-amino-7-fluoro-2-(4-(1-(1-(thiophen-2-ylethyl)-1H-tetrazol-5-yl)propyl)-2-amino-piperazin-1-yl)benzothiazole], for which the “Activity (EC1.5)” value is “H (EC1.5<5 μM)”. In the case of `CCC(c1nnnn1CCc1cccs1)N1CCN(c2nc3cc(N)cc(F)c3s2)C([N+](=O)[O-])C1` (stereo not drawn) [Compound 67, 5-amino-7-fluoro-2-(4-(1-(1-(thiophen-2-ylethyl)-1H.tetrazol-5-yl)propyl)-2-nitro-piperazin-1-yl)benzothiazole], the “Activity (EC1.5)” value was “H (EC1.5<5 μM)”.

Consider `CCC(c1nnnn1Cc1cccs1)C1CCCC(c2nc3cc(N)cc(F)c3s2)CC1` (stereo not drawn) [Compound 68, 5-amino-7-fluoro-2-(4-(1-(1-(thiophen-2-ylmethyl)-1H-tetrazol-5-yl)propyl)cycloheptyl)benzothiazole], for which the “Activity (EC1.5)” value was “H (EC1.5<5 μM)”. As to `CCC(c1nnnn1Cc1cccs1)C1CCN(c2nc3cc(N)cc(F)c3s2)C1` (stereo not drawn) [Compound 69, 5-amino-7-fluoro-2-(4-(1-(1-(thiophen-2-ylmethyl)-1H-tetrazol-5-yl)propyl)pyrrolidine-1-yl)benzothiazole], the “Activity (EC1.5)” value is “H (EC1.5<5 μM)”. In the case of `CCC(c1nnnn1Cc1cccs1)C1CCCN(c2nc3cc(N)cc(F)c3s2)CC1` (stereo not drawn) [Compound 70, 5 amino-7-fluoro-2-(4-(1-(1-(thiophen-2-ylmethyl)-1H-tetrazol-5-yl)propyl)azepane-1-yl)benzothiazole], the “Activity (EC1.5)” value is on record as “H (EC1.5<5 μM)”.

Consider `CCC(c1nnnn1Cc1cccs1)N1CCCN(c2nc3cc(N)cc(F)c3s2)CC1` (stereo not drawn) [Compound 71, 5-amino-7-fluoro-2-(4-(1-(1-(thiophen-2-ylmethyl)-1H-tetrazol-5-yl)propyl)1,4-diazepane-1-yl)benzothiazole], for which the “Activity (EC1.5)” value is on record as “H (EC1.5<5 μM)”.

As for `CCC(c1nnnn1Cc1cccs1)N1CCCN(c2nc3cc(N)cc(F)c3s2)CCC1` (stereo not drawn) [Compound 72, 5-amino-7-fluoro-2-(5-(1-(1-(thiophen-2-ylmethyl)-1H-tetrazol-5-yl)propyl)1,5-diazocane-1-yl)benzothiazole], the “Activity (EC1.5)” value is listed as “H (EC1.5<5 μM)”.

As to `CCC(c1nnnn1Cc1ccns1)N1CCN(c2nc3cc(N)cc(F)c3s2)CC1` (stereo not drawn) [Compound 73, 5-amino-7-fluoro-2-(4-(1-(1-(isothiazol-5-ylmethyl)-1H-tetrazol-5-yl)propyl)piperazin-1-yl)benzothiazole], the “Activity (EC1.5)” value is recorded as “H (EC1.5<5 μM)”.

Regarding `CCC(c1nnnn1CCc1ccns1)N1CCN(c2nc3cc(N)cc(F)c3s2)CC1` (stereo not drawn) [Compound 74, 5-amino-7-fluoro-2-(4-(1-(1-(isothiazol-5-ylethyl)-1H-tetrazol-5-yl)propyl)piperazin-1-yl)benzothiazole], the “Activity (EC1.5)” value is “H (EC1.5<5 μM)”. The same measure, in the same setting: with `CCC(c1nnnn1CCc1cccs1)N1CCCN(c2nc3cc(N)cc(F)c3s2)CC1` (stereo not drawn) [Compound 75, 5-amino-7-fluoro-2-(4-(1-(1-(thiophen-2-ylethyl)-1H-tetrazol-5-yl)propyl)1,4-diazepane-1-yl)benzothiazole] the entry was “H (EC1.5<5 μM)”; with `CCC(c1nnnn1CCc1cccs1)N1CCCN(c2nc3cc(N)cc(F)c3s2)CC1` (stereo not drawn) [Compound 76, 5-amino-7-fluoro-2-(4-(1-(1-(thiophen-2-ylethyl)-1H-tetrazol-5-yl)propyl)1,4-diazepane-1-yl)benzothiazole], “H (EC1.5<5 μM)”.

In the next experiment the test system is functional O-mannosylation of α-DG on cell surfaces (CHO, C2C12, HSMB, FKRPD cells). Nature of the experiment: Immuno-fluorescent staining with IIH6 antibody after compound treatment (FIG. 1). Format: cell-based, Chinese hamster, mouse, human. The settings on record: FKRPD cells in 96 well-plates, series of concentrations, 48 hours. The procedure:
The Chinese hamster ovary (CHO), mouse myoblasts (C2C12), normal human myoblasts (HSMB), human FKRP deficient myoblasts (FKRPD) were grown in 96 well-plates and treated with the compound at a series concentrations for 48 hours. The cells were examined with immuno-fluorescent staining using the IIH6 antibody that recognize the FOG of α-DG as the primary antibody followed by an appropriate secondary antibody conjugated with fluorophore. The detailed protocol is described in experiment section below.
as §1
The cells were fixed, permeablized, and then blocked with 10% BSA in PBS for 1 hour. […]
Regarding `CCC(c1nnnn1Cc1cccs1)N1CCN(c2nc3cc(N)cc(F)c3s2)CC1` (stereo not drawn) [Compound 46, 5-amino-7-fluoro-2-(4-(1-(1-(thiophen-2-ylmethyl)-1H-tetrazol-5-yl)propyl)piperazin-1-yl)benzothiazole], the “enhancement of the functional O-mannosylation of α-DG on cell surfaces” value is “dose-dependent enhancement”.
